{"source": "patent US20250352553A1", "about": "“TREATMENT OF HOSPITAL-ACQUIRED BACTERIAL PNEUMONIA AND VENTILATOR-ASSOCIATED BACTERIAL PNEUMONIA CAUSED BY SUSCEPTIBLE ISOLATES OF ACINETOBACTER BAUMANNII-CALCOACETICUS COMPLEX” (Entasis Therapeutics, Inc., priority 2024, published 2025)", "key": {"[1]": {"system": "Acinetobacter baumannii-calcoaceticus complex", "assay_type": "in vivo, human", "details": "Part A, CRABC m-MITT Population", "description": "The Phase 3 trial employed a non-inferiority design, as discussed and agreed with the FDA DAI. A Test of Cure (TOC) visit was completed 7±2 days after the last dose, and survival was assessed at Day 28.\nPatients were treated with either XACDURO® (1 g sulbactam and 1 g durlobactam, or renally adjusted dose) intravenously over 3 hours every 6 hours (n=91) or colistin 2.5 mg/kg (or renally adjusted dose) intravenously over 30 minutes every 12 hours after an initial loading dose of colistin 2.5 to 5 mg/kg (n=86). Both treatment arms also received 1 g imipenem/1 g cilastatin (or renally adjusted dose) intravenously every 6 hours as background therapy for potential HABP/VABP pathogens other than Acinetobacter baumannii-calcoaceticus complex. Patients received up to 14 days of therapy.\nPart A was a randomized, assessor-blinded, comparative portion of the Phase 3 trial. Patients were randomized (1:1) to 1.0 g sulbactam/1.0 g durlobactam or 2.5 mg/kg colistin. All patients in both treatment groups received 1.0 g imipenem/1.0 g cilastatin as background therapy to treat non-ABC co-infecting pathogens.\nRandomization was stratified by infection type (HABP/VABP/ventilated pneumonia [VP] vs bacteremia), severity of illness, and geography.\nEligible patients were ≥18 years of age with a diagnosis of a serious infection caused by ABC as either a single pathogen or member of a polymicrobial infection confirmed by culture.\nNon-inferiority was concluded if the upper limit of the 2-sided 95% CI was <20%.\nSecondary efficacy endpoints for Parts A and B included: 28-day all-cause mortality in the m-MITT and ITT Populations, 14-day all-cause mortality in the CRABC m-MITT and m-MITT Populations, Clinical cure at TOC, End of Treatment (EOT), and Late Follow-Up (LFU) in the CRABC m-MITT Population, and Microbiological favorable assessment at TOC, EOT, and LFU in the CRABC m-MITT Population."}, "[2]": {"details": "in vivo", "experimental": "The modified RIFLE criteria includes: Risk (R): increased creatinine level 1.5× or glomerular filtration rate (GFR) decreased >25%, • Injury (I): increased creatinine level 2× or GFR decreased >50%, Failure (F): increased creatinine level 3×, GFR decreased >75%, or creatinine level ≥4 mg/dL, Loss (L): persistent acute renal failure or complete loss of function for >4 weeks, and End-Stage Kidney Disease (ESKD; E): ESKD for >3 months."}, "[3]": {"system": "Acinetobacter baumannii-calcoaceticus complex", "details": "colistin-based therapy, cited from earlier work"}}}
{"substance": "colistin", "values": [{"measurement": "28-day all-cause mortality", "setting": "[1]", "value": 32.3, "unit": "%"}, {"measurement": "clinical cure rate at TOC", "setting": "[1]; Test of Cure visit", "value": 40.3, "unit": "%"}, {"measurement": "microbiological favorable assessment at TOC", "setting": "[1]; eradication and presumed eradication", "value": 41.9, "unit": "%"}, {"measurement": "incidence of nephrotoxicity (modified RIFLE criteria)", "setting": "[2]", "value": 37.6, "unit": "%"}, {"measurement": "mortality rate, random effects analysis", "setting": "[3]; literature review, DerSimonian and Laird, 95% CI 32%, 47%", "value": 40, "unit": "%"}, {"measurement": "mortality rate, fixed effects analysis", "setting": "[3]; literature review, 95% CI 35%, 45%", "value": 40, "unit": "%"}, {"measurement": "mortality rate, random effects meta-analysis updated with 4 additional studies", "setting": "[3]; 95% CI 36%, 47%", "value": 41, "unit": "%"}]}
